Laboratory results as given in patent US8747537B2, “Ink containing heterocyclic azo dye, and dye for use in said ink” (Mitsubishi Chemical Corporation, priority 2010, dated 2014).

How the values were obtained:
[1] = Light fastness test (retention of dye after 2 hours of high-pressure mercury lamp irradiation); format: physicochemical; details: 1 mg in 250 mL, 2 hours irradiation
Protocol: The light fastness of each dye was examined in the following manner. One milligram of each dye was dissolved in 250 mL of each of n-decane, tetradecane, Isopar M, and Isopar G, and the solution was irradiated with light for 2 hours using photoreaction apparatus UVL-400HA (400-W high-pressure mercury lamp), manufactured by Riko-Kagaku Sangyo Co., Ltd. During the irradiation, the vessel was cooled with a coolant to keep the internal temperature at 10-30° C. The retention of the dye was determined through the following calculation to evaluate the light fastness. Retention of dye=(absorbance at absorption-maximum wavelength after irradiation)/(absorbance at absorption-maximum wavelength before irradiation)

[2] = Solubility test in low-polarity solvents (saturated solution, λmax, solubility, εC); format: physicochemical; details: for Solubility: saturated solution
Protocol: The solubility of each dye in n-decane, tetradecane, Isopar M, Isopar G, and decalin was examined in the following manner. Each dye was added to each solvent until a dissolution residue came to remain, and this mixture was subjected to a 30-minute ultrasonic treatment at 30 degrees. The resultant mixture was allowed to stand at 5° C. for 24 hours and then subjected to centrifugal filtration (centrifugal force, 5,200×g) with a 0.1-μm filter using a microcentrifuge. The saturated solution obtained was diluted to an adequate concentration, and the solubility of each dye was calculated from a relationship with an extinction coefficient determined beforehand. Furthermore, the value of the product of the molar extinction coefficient ε (Lmol^−1cm^−1) and the concentration C (molL^−1) of the saturated solution, εC, was determined.
Sudan Black B (manufactured by Tokyo Kasei Kogyo Co., Ltd.), which is a commercial oil-soluble black dye, was added to n-decane until a dissolution residue came to remain, and this mixture was subjected to a 30-minute ultrasonic treatment at 30 degrees. The resultant mixture was allowed to stand at 5° C. for 24 hours and then subjected to centrifugal filtration (centrifugal force, 5,200×g) with a 0.1-μm filter using a microcentrifuge. The saturated n-decane solution obtained was diluted to an adequate concentration, and the solubility of the dye was calculated from a relationship with an extinction coefficient determined beforehand.

[3] = n-decane, 400-W high-pressure mercury lamp
[4] = n-decane, stood at 5° C. for 24 hours, 0.1-μm filter

Light fastness: retention of dye ([1]; Isopar G) [%] | Light fastness: retention of dye ([1]; Isopar M) [%] | Light fastness: retention of dye [1, 3] [%] | Light fastness: retention of dye ([1]; tetradecane) [%] | εC ([2]; Isopar G) [cm⁻¹] | λmax (absorption-maximum wavelength) ([2]; Isopar G solution) [nm] | Solubility ([2]; Isopar G) [%] | εC ([2]; Isopar M) [cm⁻¹] | λmax (absorption-maximum wavelength) ([2]; Isopar M solution) [nm] | Solubility ([2]; Isopar M) [%] | εC ([2]; decalin) [cm⁻¹] | λmax (absorption-maximum wavelength) ([2]; decalin solution) [nm] | Solubility ([2]; decalin) [%] | εC (molar extinction coefficient × concentration of saturated solution) ([2]; n-decane) [cm⁻¹] | λmax (absorption-maximum wavelength) ([2]; n-decane solution) [nm] | Solubility [2, 4] [%] | εC ([2]; tetradecane) [cm⁻¹] | λmax (absorption-maximum wavelength) ([2]; tetradecane solution) [nm] | Solubility ([2]; tetradecane) [%] | Structure (SMILES)
98 | 95 | 96 | 82 | 4900 | 526 | 7.4 | 6000 | 530 | 8.51 | 5200 | 534 | 6.5 | 5700 | 527 | 6.6 | 5200 | 530 | 6.8 | CCCCC(CC)CN(CC(CC)CCCC)c1ccc(/N=N/c2snc(CC)c2C#N)c(C)c1 (stereo not drawn) [Dye 4]
98 | 87 | 98 | 81 | 6000 | 535 | 10 | 6300 | 536 | 10 | – | – | – | 5700 | 536 | 10.3 | 5400 | 538 | 9.7 | CCCCC(CC)CN(CC(CC)CCCC)c1ccc(/N=N/c2sc(C(=O)OCC)c(C)c2C(=O)OCC)c(NC(=O)CC)c1 (stereo not drawn) [Dye 7]
– | – | 99 | – | 18600 | 542 | 20 | 18600 | 542 | 20 | 6600 | 546 | 6.7 | 17000 | 543 | 20 | 16700 | 544 | 19 | CCCCC(CC)CN(CC(CC)CCCC)c1ccc(N=Nc2snc(CC)c2C#N)c(NC(C)=O)c1 (stereo not drawn) [Dye 10]
